Literature values, collected in US20240158423A1, “TWO-COMPARTMENT BIPOLAR MEMBRANE ELECTRODIALYSIS OF SALTS OF AMINO ACIDS” (MONSANTO TECHNOLOGY LLC, priority 2021, published 2024).
Read-outs that look alike come from different tables or passages of the source.

solubility (in water at a temperature of 10° C.): less than 4 g IDA/100 g H2O
solubility (in water at a temperature of 60° C.): approximately 14 g IDA/100 g H2O
Structure (SMILES): O=C(O)CNCC(=O)O [IDA, iminodiacetic acid]
